In patent publication US6875758B2, “Method of treating hyperlipidemic and hyperglycemic conditions in mammals using pregnadienols and pregnadienones” (Council of Scientific & Industrial Research, priority 1999, dated 2005):

How the values were obtained:
Androgen Receptor = target: T1, Androgen Receptor (Homo sapiens, UniProt P10275); details: relative binding affinity; cited from earlier work
T1 sequence (P10275 1-920): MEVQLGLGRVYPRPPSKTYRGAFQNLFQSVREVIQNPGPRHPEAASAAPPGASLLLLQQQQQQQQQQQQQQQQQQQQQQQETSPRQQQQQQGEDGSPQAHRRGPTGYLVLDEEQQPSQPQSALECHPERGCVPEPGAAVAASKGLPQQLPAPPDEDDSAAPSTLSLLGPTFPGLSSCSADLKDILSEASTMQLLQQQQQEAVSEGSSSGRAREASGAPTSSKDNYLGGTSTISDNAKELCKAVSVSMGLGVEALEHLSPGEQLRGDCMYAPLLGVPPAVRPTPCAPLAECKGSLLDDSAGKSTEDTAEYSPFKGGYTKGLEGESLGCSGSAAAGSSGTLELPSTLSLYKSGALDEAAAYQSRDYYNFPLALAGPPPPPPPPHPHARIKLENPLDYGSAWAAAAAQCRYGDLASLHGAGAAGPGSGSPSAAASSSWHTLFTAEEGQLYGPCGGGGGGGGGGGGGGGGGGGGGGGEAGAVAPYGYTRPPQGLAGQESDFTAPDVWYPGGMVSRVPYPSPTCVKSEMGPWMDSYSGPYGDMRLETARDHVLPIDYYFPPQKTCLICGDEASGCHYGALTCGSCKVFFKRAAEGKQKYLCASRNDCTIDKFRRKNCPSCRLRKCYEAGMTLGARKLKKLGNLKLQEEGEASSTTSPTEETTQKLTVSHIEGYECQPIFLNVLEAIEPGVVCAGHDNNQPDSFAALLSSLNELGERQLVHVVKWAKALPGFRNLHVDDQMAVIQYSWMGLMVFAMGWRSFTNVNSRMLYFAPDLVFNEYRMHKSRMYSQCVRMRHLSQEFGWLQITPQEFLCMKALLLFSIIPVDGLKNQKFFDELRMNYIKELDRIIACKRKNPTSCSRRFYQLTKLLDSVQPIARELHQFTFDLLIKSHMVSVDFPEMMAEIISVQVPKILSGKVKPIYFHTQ

Progestin Receptor = target: T2, Progestin Receptor (Homo sapiens, UniProt P06401); details: cited from earlier work; for Progestin Receptor Binding Affinity: relative binding affinity
T2 sequence (P06401 1-933): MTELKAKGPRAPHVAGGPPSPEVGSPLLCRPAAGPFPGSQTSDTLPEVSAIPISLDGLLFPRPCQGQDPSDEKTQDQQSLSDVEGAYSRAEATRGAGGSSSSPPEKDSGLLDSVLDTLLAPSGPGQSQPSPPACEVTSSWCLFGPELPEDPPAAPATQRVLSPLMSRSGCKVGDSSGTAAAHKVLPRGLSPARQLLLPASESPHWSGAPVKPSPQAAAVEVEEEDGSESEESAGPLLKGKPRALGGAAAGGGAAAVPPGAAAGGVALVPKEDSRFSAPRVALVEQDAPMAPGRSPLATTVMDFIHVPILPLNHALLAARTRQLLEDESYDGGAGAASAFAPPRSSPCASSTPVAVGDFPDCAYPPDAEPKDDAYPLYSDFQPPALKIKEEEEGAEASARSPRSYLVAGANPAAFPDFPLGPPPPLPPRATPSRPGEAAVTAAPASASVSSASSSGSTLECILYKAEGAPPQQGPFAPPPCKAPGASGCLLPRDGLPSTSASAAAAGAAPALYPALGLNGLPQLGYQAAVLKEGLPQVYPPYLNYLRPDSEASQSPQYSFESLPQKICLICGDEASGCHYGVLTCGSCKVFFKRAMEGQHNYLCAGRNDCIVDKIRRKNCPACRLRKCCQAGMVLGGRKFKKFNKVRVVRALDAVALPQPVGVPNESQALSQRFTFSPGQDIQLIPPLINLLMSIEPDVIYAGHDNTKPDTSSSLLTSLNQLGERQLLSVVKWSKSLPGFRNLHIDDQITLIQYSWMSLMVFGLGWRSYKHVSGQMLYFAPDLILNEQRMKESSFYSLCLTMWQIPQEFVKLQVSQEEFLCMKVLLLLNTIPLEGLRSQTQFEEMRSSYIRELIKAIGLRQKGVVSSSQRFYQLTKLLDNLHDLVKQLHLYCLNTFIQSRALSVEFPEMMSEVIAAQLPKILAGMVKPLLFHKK

[1] = test system: endometrial proliferation; assay: Clauberg assay, endometrial proliferation on McPhail scale; type: in vivo; details: 50 mg/kg
Protocol: The progestational activity was also tested in vivo by Clauberg assay method. The degree of endometrial proliferation was estimated on the McPhail scale where 3′ or 4′ was considered as a full progestational effect.

## C#C[C@]1(O)C=C[C@H]2[C@@H]3CCC4=CC(=O)CC[C@@H]4[C@H]3CC[C@@]21CC [Gestodene]
Androgen Receptor
  Androgen Receptor Binding Affinity: 0.154
Progestin Receptor; androgen vs progestin receptor
  Selectivity Index (A/P ratio): 28
Progestin Receptor
  Progestin Receptor Binding Affinity: 9.21

## C#C[C@]1(O)CC[C@H]2[C@@H]3CCC4=CC(=O)CC[C@@H]4[C@H]3C(=C)C[C@@]21CC [3-Keto-desogestrel]
Progestin Receptor
  Progestin Receptor Binding Affinity: 8.6

## CC(=O)[C@H]1CC[C@H]2[C@@H]3CCC4=CC(=O)CC[C@]4(C)[C@H]3CC[C@]12C [Progesterone, reference compound]
[1]
  progestational activity: marked progestational activity
